Peptide text beside a SMILES is read from it.

One test deals with Human fibronectin. The format is binding. The note with it: for IC50: read-out: concentration eliciting a 50% inhibition of fibronectin binding.
Another test has as its system spirochetes. The conditions noted are these: cited from earlier work.
The subject of the next test is Treponema palladium. The conditions noted are these: Thomas et al., 1985b; cited from earlier work.
The test system of another test is Trypanosoma cruzi. The conditions noted are these: Ouaissi et al., 1986; cited from earlier work.

On to `CC[C@H](C)[C@H](NC(=O)[C@H](CCC(=O)O)NC(=O)[C@@H](NC(=O)[C@H](Cc1c[nH]cn1)NC(=O)[C@H](CCCCN)NC(=O)[C@H](CC(N)=O)NC(=O)[C@@H](N)Cc1ccccc1)[C@@H](C)O)C(=O)N[C@H](C(=O)N[C@@H](CCC(=O)O)C(=O)N[C@@H](CCC(=O)O)C(=O)N[C@@H](CC(=O)O)C(=O)N[C@H](C(=O)N[C@@H](CC(N)=O)C(=O)N[C@@H](CCCCN)C(=O)N[C@@H](CC(=O)O)C(=O)N[C@@H](CCCCN)C(=O)N1CCC[C@H]1C(=O)N[C@@H](CO)C(=O)N[C@@H](Cc1ccc(O)cc1)C(=O)N[C@@H](CCC(N)=O)C(=O)N[C@@H](Cc1ccccc1)C(=O)NCC(=O)NCC(=O)N[C@@H](Cc1c[nH]cn1)C(=O)N[C@@H](CC(N)=O)C(=O)N[C@@H](CO)C(=O)N[C@H](C(=O)N[C@@H](CC(=O)O)C(=O)N[C@@H](Cc1ccccc1)C(=O)N[C@@H](CCC(=O)O)C(=O)N[C@@H](CCC(=O)O)C(=O)N[C@@H](CC(=O)O)C(=O)N[C@H](C(=O)N[C@@H](CC(C)C)C(=O)N1CCC[C@H]1C(=O)N[C@@H](CCCCN)C(=O)N[C@H](C(=O)O)C(C)C)[C@@H](C)O)C(C)C)[C@@H](C)O)[C@@H](C)CC` [Peptide D3] (H-FNKHTEIIEEDTNKDKPSYQFGGHNSVDFEEDTLPKV-OH), for which the “inhibitory activity (inhibition of ^125I-HFN binding to S. aureus 8325-4), in words” value with Human fibronectin was “effective inhibitors”.
Consider `CC(C)C[C@H](NC(=O)[C@@H](NC(=O)[C@H](CC(=O)O)NC(=O)[C@H](CCC(=O)O)NC(=O)[C@H](CCC(=O)O)NC(=O)[C@H](Cc1ccccc1)NC(=O)[C@H](CC(=O)O)NC(=O)[C@@H](NC(=O)[C@H](CO)NC(=O)[C@H](CC(N)=O)NC(=O)[C@H](Cc1c[nH]cn1)NC(=O)CNC(=O)CNC(=O)[C@H](Cc1ccccc1)NC(=O)[C@H](CCC(N)=O)NC(=O)[C@H](Cc1ccc(O)cc1)NC(=O)[C@H](CO)NC(=O)[C@@H]1CCCN1C(=O)[C@@H](N)CCCCN)C(C)C)[C@@H](C)O)C(=O)N1CCC[C@H]1C(=O)N[C@@H](CCCCN)C(=O)O` [Peptide S16-36] (H-KPSYQFGGHNSVDFEEDTLPK-OH), for which the IC50 on Human fibronectin came to 10 µM.
For `CC(C)[C@H](NC(=O)[C@H](CO)NC(=O)[C@H](CC(N)=O)NC(=O)[C@H](Cc1c[nH]cn1)NC(=O)CNC(=O)CNC(=O)[C@H](Cc1ccccc1)NC(=O)[C@H](CCC(N)=O)NC(=O)[C@H](Cc1ccc(O)cc1)NC(=O)[C@H](CO)NC(=O)[C@@H]1CCCN1)C(=O)N[C@@H](CC(=O)O)C(=O)N[C@@H](Cc1ccccc1)C(=O)N[C@@H](CCC(=O)O)C(=O)N[C@@H](CCC(=O)O)C(=O)N[C@@H](CC(=O)O)C(=O)N[C@H](C(=O)O)[C@@H](C)O` [Peptide S17-33] (H-PSYQFGGHNSVDFEEDT-OH), in the test with Human fibronectin, the “inhibitory activity (inhibition of ^125I-HFN binding to S. aureus 8325-4), in words” value is “dramatic recovery of activity” and the IC50 came to 100 µM.
Regarding `CC(C)C[C@H](NC(=O)[C@@H](NC(=O)[C@H](CC(=O)O)NC(=O)[C@H](CCC(=O)O)NC(=O)[C@H](CCC(=O)O)NC(=O)[C@H](Cc1ccccc1)NC(=O)[C@H](CC(=O)O)NC(=O)[C@@H](NC(=O)[C@H](CO)NC(=O)[C@H](CC(N)=O)NC(=O)[C@H](Cc1c[nH]cn1)NC(=O)CNC(=O)CNC(=O)[C@H](Cc1ccccc1)NC(=O)[C@@H](N)CCC(N)=O)C(C)C)[C@@H](C)O)C(=O)N1CCC[C@H]1C(=O)N[C@@H](CCCCN)C(=O)O` [Peptide S20-36] (H-QFGGHNSVDFEEDTLPK-OH), the IC50 at Human fibronectin worked out at 200 µM.
With `CC(C)C[C@H](NC(=O)[C@@H](NC(=O)[C@H](CC(=O)O)NC(=O)[C@H](CCC(=O)O)NC(=O)[C@H](CCC(=O)O)NC(=O)[C@H](Cc1ccccc1)NC(=O)[C@H](CC(=O)O)NC(=O)[C@@H](NC(=O)[C@H](CO)NC(=O)[C@H](CC(N)=O)NC(=O)[C@H](Cc1c[nH]cn1)NC(=O)CNC(=O)CNC(=O)[C@@H](N)Cc1ccccc1)C(C)C)[C@@H](C)O)C(=O)N1CCC[C@H]1C(=O)N[C@@H](CCCCN)C(=O)O` [Peptide S21-36] (H-FGGHNSVDFEEDTLPK-OH), the “fold less effective than S20-36” value in the test on Human fibronectin is listed as “about 10 fold”.
As to RGDS, in the test on spirochetes, the “attachment of spirochetes to cultured human cells, in words” value is on record as “blocked”. Besides, the “binding of fibronectin to Treponema palladium, in words” value with Treponema palladium is recorded as “prevented”. In addition, in the test on Trypanosoma cruzi, the “binding of fibronectin to Trypanosoma cruzi, in words” value was “prevented”.

Values taken from patent EP0504335B1, “A FIBRONECTIN BINDING PEPTIDE” (priority 1990, dated 1997).
